Laboratory results reported in patent US7074814B2, “3-substituted indoles and derivatives thereof as therapeutic agents” (Warner-Lambert Company LLC, priority 2003, dated 2006).

What follows are molecules tested against T1, p101/p110γ protein (PI3Kγ) (Homo sapiens, UniProt P48736) (assay: PI3Kγ in vitro kinase assay). Details: purified recombinant p101/p110γ with G protein β1/γ2 subunits; 20 μM ATP, 25 μM PIP2; 20 minutes at room temperature.
T1 construct: HA; made in house; host or cells: Spodoptera frugiperda (Sf9) cells, baculovirus coinfection
Format: biochemical
Description: Spodtera frugiperda cells, grown in ESF921 media, were coinfected with baculovirus expressing a glu-tagged p101 and baculovirus expressing an HA-tagged p110γ, at a 3:1 ratio of p101 baculovirus to p110γ baculovirus. Sf9 cells were grown to 1×10^7 total cells/mL in 10 L bioreactors and harvested 48–72 hours post infection. Samples of infected cells were then tested for expression of […] PI3 kinase by immunoprecipitation and Western Blot analysis methods (see below).
To purify PI3Kγ, 4 volumes of room temperature hypotonic lysis buffer (1 mM MgCl2, 1 mM DTT, 5 mM EGTA, 1 mM Pefabloc, 0.5 μM aprotinin, 5 μM leupeptin, 2 μM pepstatin, 5 μM E64, pH 8) per gram of cell paste, was poured onto frozen cell pellets with stirring, then lysed in a nitrogen “bomb” at 400 psi (599HC T316, Parr Instrument Co, Moline, Ill.). NaCl was added to 150 mM, and sodium cholate was added to 1% and mixed for another 45 minutes. The lysates were clarified by centrifugation for 25 minutes at 14,000 rpm. The lysates were then loaded over anti-glu-linked Protein-G Sepaharose beads (Covance Research Products, Richmond, Calif.) using 20 mL resin/50 g cell paste. The column was washed with 15 volumes of wash buffer (1 mM DTT, 0.2 mM EGTA, 1 mM Pefabloc, 0.5 μM aprotinin, 5 μM leupeptin, 2 μM pepstatin, 5 μM E64, 150 mM NaCl, 1% sodium cholate, pH 8). PI3Kγ was eluted with 6 column volumes of wash buffer that contain 100 μg/mL of a peptide that competes for binding of the glu tag. The column fractions with the eluted protein (determined by taking OD280 readings) were collected and dialyzed in 0.2 mM EGTA, 1 mM DTT, 1 mM Pefabloc, 5 μM leupeptin, 0.5% sodium cholate, 150 mM NaCl, and 50% glycerol, pH 8. The fractions were stored at −80° C. until further use.
Spodtera frugiperda cells were coinfected with baculovirus expressing a glu-tagged G protein β1 and baculovirus expressing a G protein β2, at a 1:1 ratio of glu-tagged G protein β1 baculovirus to G protein β2 baculovirus. Sf9 cells are grown in 10 L bioreactors and harvested 48–72 hours post infection. Samples of infected cells were tested for G protein β1/β2 expression by Western Blot analysis, as described below. Cell lysates were homogenized and loaded onto a column of glu-tagged beads as in Biological Example 1 and competed off the column with a glu peptide and processed as described in Biological Example 1.
The inhibitory properties of the compounds in Table 1 were assayed in an in vitro PI3K assay. In a 96-well polypropylene plate, each well was spotted with 2 μL of 50 times the desired final concentration of compound in DMSO. Purified recombinant p101/p110γ protein (0.03 μg; ˜2.7 nM) and G protein β1/γ2 subunits (0.09 μg; ˜57.7 nM) for each reaction was combined in the assay buffer (30 mM HEPES, 100 mM NaCl, 1 mM EGTA, and 1 mM DTT). ATP and [γ-^32P-ATP] (0.09 μCi) were added to this mixture so that the final ATP concentration in the reaction was 20 μM. Lipid micelles were formed by sonicating phosphatidylinositol-4,5-diphosphate (PIP2), phosphatidylethanolamine (PE), and Na-cholate in the assay buffer for 10 minutes, adding MgCl2 and incubating on ice for 20 minutes, for final concentrations of 25 μM PIP2, 300 μM PE, 0.02% Na-cholate, and 10 mM MgCl2 in the reaction. The reactions were started by adding equal volumes lipid and enzyme mixture in a total volume of 50 μL, allowed to run for 20 minutes at room temperature, and stopped with 100 μL 75 mM H3PO4. The lipid product was transferred to a glass fiber filter plate and washed with 75 mM H3PO4 several times. The presence of radioactive lipid product (PIP3) was measured by adding Wallac Optiphase mix to each well and counting in a Wallac 1450 Trilux plate reader (PerkinElmer Life Sciences Inc., Boston, Mass. 02118). The IC50 for each compound tested is reported in μM in Table 1: […]

T1 sequence (P48736 whole entry, species assumed): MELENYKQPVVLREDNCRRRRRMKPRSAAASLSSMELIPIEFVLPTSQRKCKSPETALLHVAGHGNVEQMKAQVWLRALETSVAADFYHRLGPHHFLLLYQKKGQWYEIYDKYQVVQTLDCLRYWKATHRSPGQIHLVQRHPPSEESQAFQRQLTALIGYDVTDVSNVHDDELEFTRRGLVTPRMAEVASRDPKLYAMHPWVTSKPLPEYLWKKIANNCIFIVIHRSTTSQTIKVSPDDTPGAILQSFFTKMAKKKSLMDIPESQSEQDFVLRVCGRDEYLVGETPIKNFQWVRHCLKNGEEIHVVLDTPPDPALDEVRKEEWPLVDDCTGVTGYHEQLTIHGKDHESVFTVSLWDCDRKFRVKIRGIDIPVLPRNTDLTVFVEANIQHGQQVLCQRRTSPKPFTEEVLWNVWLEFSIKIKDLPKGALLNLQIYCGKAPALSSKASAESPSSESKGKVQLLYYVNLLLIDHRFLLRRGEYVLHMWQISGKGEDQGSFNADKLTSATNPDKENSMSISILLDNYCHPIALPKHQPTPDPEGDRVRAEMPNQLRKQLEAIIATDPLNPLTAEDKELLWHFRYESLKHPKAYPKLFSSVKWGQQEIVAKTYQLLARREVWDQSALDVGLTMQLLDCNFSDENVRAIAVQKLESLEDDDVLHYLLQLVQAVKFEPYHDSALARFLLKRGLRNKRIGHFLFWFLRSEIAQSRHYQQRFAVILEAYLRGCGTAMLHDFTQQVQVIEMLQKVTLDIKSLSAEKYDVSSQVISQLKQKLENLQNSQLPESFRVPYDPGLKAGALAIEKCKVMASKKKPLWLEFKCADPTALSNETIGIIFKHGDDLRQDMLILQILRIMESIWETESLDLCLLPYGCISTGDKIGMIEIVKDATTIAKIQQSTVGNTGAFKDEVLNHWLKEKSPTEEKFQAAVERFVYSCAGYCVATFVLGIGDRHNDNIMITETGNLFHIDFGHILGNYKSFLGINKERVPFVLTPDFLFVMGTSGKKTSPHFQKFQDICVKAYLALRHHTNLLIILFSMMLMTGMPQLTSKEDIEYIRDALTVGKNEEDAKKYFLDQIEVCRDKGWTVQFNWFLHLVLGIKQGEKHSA
T1 sequence (Q8WYR1 whole entry partner, species assumed): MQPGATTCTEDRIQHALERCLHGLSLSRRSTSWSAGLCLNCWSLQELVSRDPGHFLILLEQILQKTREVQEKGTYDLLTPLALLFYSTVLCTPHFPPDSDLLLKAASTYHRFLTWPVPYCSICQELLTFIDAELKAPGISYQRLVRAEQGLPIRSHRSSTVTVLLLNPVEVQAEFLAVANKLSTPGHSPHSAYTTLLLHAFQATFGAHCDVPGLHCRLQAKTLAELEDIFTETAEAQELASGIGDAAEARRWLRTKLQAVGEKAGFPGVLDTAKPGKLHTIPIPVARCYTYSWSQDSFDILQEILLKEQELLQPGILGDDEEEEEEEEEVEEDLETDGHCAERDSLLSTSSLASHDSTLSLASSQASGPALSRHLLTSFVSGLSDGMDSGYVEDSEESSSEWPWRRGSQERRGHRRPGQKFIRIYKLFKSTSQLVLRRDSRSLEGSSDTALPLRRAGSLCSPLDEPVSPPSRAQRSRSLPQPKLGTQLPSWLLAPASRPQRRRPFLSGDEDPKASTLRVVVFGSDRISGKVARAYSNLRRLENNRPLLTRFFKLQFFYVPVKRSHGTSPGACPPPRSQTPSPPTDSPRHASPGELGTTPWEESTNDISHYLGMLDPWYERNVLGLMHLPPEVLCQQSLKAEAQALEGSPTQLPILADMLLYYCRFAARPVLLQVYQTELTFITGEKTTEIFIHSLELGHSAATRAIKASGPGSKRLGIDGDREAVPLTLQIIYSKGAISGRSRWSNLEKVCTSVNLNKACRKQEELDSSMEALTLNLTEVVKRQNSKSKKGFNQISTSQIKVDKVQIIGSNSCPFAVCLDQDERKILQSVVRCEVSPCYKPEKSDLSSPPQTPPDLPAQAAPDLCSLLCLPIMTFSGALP

| Molecule | IC50 [nM] |
| --- | --- |
| COc1cc2[nH]c(C(=O)Nc3nn[nH]n3)c(Sc3ccc(Cl)c(Cl)c3)c2cc1OC [Example 2, 3-(3,4-Dichloro-phenylsulfanyl)-5,6-dimethoxy-1H-indole-2-carboxylic acid (2H-tetrazol-5-yl)-amide] | 1840 |
| COc1cc2c(Sc3ccccc3)c(C(=O)Nc3nn[nH]n3)n(C)c2cc1OC [Example 3, 5,6-Dimethoxy-1-methyl-3-phenylsulfanyl-1H-indole-2-carboxylic acid (2H-tetrazol-5-yl)-amide] | 550 |
| COc1cc2[nH]c(C(=O)Nc3nn[nH]n3)c(Sc3ccccc3C)c2cc1OC [Example 1, 5,6-Dimethoxy-3-o-tolylsulfanyl-1H-indole-2-carboxylic acid (2H-tetrazol-5-yl)-amide] | 585 |
| 1-Ethyl-5,6-dimethoxy-3-phenyl-1H-indole-2-carboxylic acid (1H-tetrazol-5-yl)-amide [Example 6] | 6600 |
| COc1cccc(Sc2c(C(=O)Nc3nn[nH]n3)[nH]c3cc(OC)c(OC)cc23)c1 [Example 5, 5,6-Dimethoxy-3-(3-methoxy-phenylsulfanyl)-1H-indole-2-carboxylic acid (2H-tetrazol-5-yl)-amide] | 725 |
| COc1cc2[nH]c(C(=O)Nc3nn[nH]n3)c(Sc3ccccc3)c2cc1OC [Example 4, 5,6-Dimethoxy-3-phenylsulfanyl-1H-indole-2-carboxylic acid (2H-tetrazol-5-yl)-amide] | 210 |
| 5,6-Dimethoxy-3-phenyl-1-propyl-1H-indole-2-carboxylic acid (1H-tetrazol-5-yl)-amide [Example 7] | 4140 |
